Experimental findings from US8962608B2, “Cycloalkylnitrile pyrazole carboxamides as janus kinase inhibitors” (Merck Sharp & Dohme Corp., priority 2011, dated 2015) are described below.

The target in this assay is JAK1 (recombinant purified GST-tagged catalytic domain) (Homo sapiens (Human), UniProt P23458). Put plainly: biochemical.

Molecules are shown by their SMILES.

Sequence of JAK1 (recombinant purified GST-tagged catalytic domain) (P23458 875-1153): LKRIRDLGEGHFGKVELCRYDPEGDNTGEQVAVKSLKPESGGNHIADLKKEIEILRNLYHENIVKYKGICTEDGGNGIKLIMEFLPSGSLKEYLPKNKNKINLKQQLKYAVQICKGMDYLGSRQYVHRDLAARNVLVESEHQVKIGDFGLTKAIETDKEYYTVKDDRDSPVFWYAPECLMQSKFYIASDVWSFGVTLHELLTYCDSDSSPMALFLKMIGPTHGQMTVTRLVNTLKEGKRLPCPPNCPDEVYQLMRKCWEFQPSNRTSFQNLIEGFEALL

For `N#C[C@H]1C[C@@H](C(=O)N[C@@H](C2CC2)C(F)(F)F)CC[C@@H]1n1cc(C(N)=O)c(Nc2ccc(Cl)cc2)n1` (single isomer, unassigned) [Example 35-24, 3-[(4-chlorophenyl)amino]-1-[(1S,2S,4S or 1R,2R,4R)-2-cyano-4-{[(1S)-1-cyclopropyl-2,2,2-trifluoroethyl]carbamoyl}cyclohexyl]-1H-pyrazole-4-carboxamide], the IC50 – broadly, the concentration at which inhibition is half-maximal – came out at 180 nM.

Take `N#C[C@H]1C[C@@H](N2CC(O)C2)CC[C@@H]1n1cc(C(N)=O)c(Nc2ccc(S(=O)(=O)C(F)(F)F)cc2)n1` (single isomer, unassigned) [Example 28-151, 1-[(1S,2S,4S or 1R,2R,4R)-2-cyano-4-(3-hydroxyazetidin-1-yl)cyclohexyl]-3-({4-[(trifluoro-methyl)sulfonyl]phenyl}amino)-1H-pyrazole-4-carboxamide]: the 50% inhibitory concentration (IC50) is 0.13 nM. The result for `N#C[C@H]1CCCCC1n1cc(C(N)=O)c(Nc2ccc3c(c2)C=CS3(=O)=O)n1` (mixture of isomers) [Example 17-63, 1-[(1S,2S and 1R,2R)-2-cyanocyclohexyl]-3-[(1,1-dioxido-1-benzothiophen-5-yl)amino]-1H-pyrazole-4-carboxamide] reads 0.45 nM; that for `N#C[C@@H]1CCCC[C@H]1n1cc(C(N)=O)c(Nc2ccc3c(c2)CCS3(=O)=O)n1` (single isomer, unassigned) [Example 45-6, 1-[(1S,2R or 1R,2S)-2-cyanocyclohexyl)-3-[(1,1-dioxido-2,3-dihydro-1-benzothiophen-5-yl)amino]-1H-pyrazole-4-carboxamide], 2 nM. Turning to `CC(C)(O)C1CC(CN[C@H]2CC[C@@H](n3cc(C(N)=O)c(Nc4ccc(C(F)(F)F)cc4)n3)[C@H](C#N)C2)C1` (single isomer, unassigned) [Example 30-4, 1-[(1R,2R,4S or 1S,2S,4R)-2-cyano-4-({[3-(1-hydroxy-1-methylethyl)cyclo-butyl]methyl}amino)cyclo-hexyl]-3-{[4-(trifluoro-methyl)phenyl]amino}-1H-pyrazole-4-carboxamide], the IC50 is 1 nM. Take `N#C[C@H]1C[C@H](N2CCC2)CC[C@@H]1n1cc(C(N)=O)c(Nc2ccc(CC(F)(F)F)cc2)n1` (single isomer, unassigned) [Example 28-53, 1-[(1S,2S,4R or 1R,2R,4S)-4-azetidin-1-yl-2-cyanocyclohexyl]-3-{[4-(2,2,2-trifluoroethyl)phenyl]amino}-1H-pyrazole-4-carboxamide]: the IC50 came out at 0.4 nM. The result for `N#C[C@@H]1C[C@H](C(=O)N[C@@H](C2CC2)C(F)(F)F)CC[C@H]1n1cc(C(N)=O)c(Nc2ccc(Cl)cc2)n1` (single isomer, unassigned) [Example 35-16, 3-[(4-chlorophenyl)amino]-1-[(1R,2R,4R or 1S,2S,4S)-2-cyano-4-{[(1S)-1-cyclopropyl-2,2,2-trifluoroethyl]carbamoyl}cyclohexyl]-1H-pyrazole-4-carboxamide] reads 9 nM; that for `N#C[C@@H]1CCCC[C@@H]1n1cc(C(N)=O)c(Nc2ccc(F)nc2)n1` (racemic) [Example 17-24, 1-[(1S,2R and 1R,2S)-2-cyanocyclohexyl]-3-[(6-fluoropyridin-3-yl)amino]-1H-pyrazole-4-carboxamide], 33 nM. On to `COCC(C)(C)N(C)[C@H]1CCC(n2cc(C(N)=O)c(Nc3ccc(Cl)cc3)n2)[C@@H](C#N)C1` (single isomer, unassigned) [Example 28-234, 3-[(4-chlorophenyl)amino]-1-{(1S,2S,4S or 1R,2R,4R)-2-cyano-4-[(2-methoxy-1,1-dimethylethyl)(methyl)ami-no]cyclohexyl}-1H-pyrazole-4-carboxamide], for which the IC50 was found to be 2 nM. As for `N#C[C@@H]1C[C@H](C(=O)N2CC(F)C2)CC[C@H]1n1cc(C(N)=O)c(Nc2ccc(Cl)cc2)n1` (single isomer, unassigned) [Example 35-33, 3-[(4-chlorophenyl)amino]-1-{(1R,2R,4R or 1S,2S,4S)-2-cyano-4-[(3-fluoroazetidin-1-yl)carbonyl]cyclohexyl}-1H-pyrazole-4-carboxamide], the IC50 is 9 nM. As to `CC(C)NC(=O)O[C@H]1CCC(n2cc(C(N)=O)c(Nc3ccc(F)cc3)n2)[C@@H](C#N)C1` (mixture of isomers) [Example 34-8, (1S,3S,4S and 1R,3R,4R)-4-{4-carbamoyl-3-[(4-fluorophenyl)amino]-1H-pyrazol-1-yl}-3-cyanocyclohexyl propan-2-ylcarbamate], the IC50 stood at 6 nM. With `C[C@@]1(O)CC[C@H](n2cc(C(N)=O)c(Nc3ccc(Cl)c(F)c3)n2)[C@@H](C#N)C1` (single isomer, unassigned) [Example 32-7, 3-[(4-chloro-3-fluorophenyl)amino]-1-[(1S,2S,4R or 1R,2R,4S)-2-cyano-4-hydroxy-4-methylcyclohexyl]-1H-pyrazole-4-carboxamide], the IC50 amounted to 5 nM.

`COC(C)(C)c1ccc(Nc2nn([C@H]3CC[C@@H](O)C[C@@H]3C#N)cc2C(N)=O)cc1` (single isomer, unassigned) [Example 25-11, 1-[(1S,2S,4R or 1R,2R,4S)-2-cyano-4-hydroxycyclohexyl]-3-{[4-(1-methoxy-1-methylethyl)phenyl]amino}-1H-pyrazole-4-carboxamide]: the IC50 came out at 0.45 nM. On to `CN(C)[C@H]1CC[C@H](n2cc(C(N)=O)c(Nc3ccc(F)cc3)n2)[C@@H](C#N)C1` (single isomer, unassigned) [Example 28-102, 1-[(1S,2S,4S or 1R,2R,4R)-2-cyano-4-(dimethylamino)cyclohexyl]-3-[(4-fluorophenyl)amino]-1H-pyrazole-4-carboxamide], for which the IC50 came out at 1 nM. Regarding `N#C[C@H]1C[C@@H](N2CCC2)CC[C@@H]1n1cc(C(N)=O)c(Nc2ccc(OC(F)F)cc2)n1` (single isomer, unassigned) [Example 28-103, 1-[(1S,2S,4S or 1R,2R,4R)-4-azetidin-1-yl-2-cyanocyclohexyl]-3-{[4-(difluoromethoxy)phenyl]amino}-1H-pyrazole-4-carboxamide], the half-maximal inhibitory concentration (IC50) was 6 nM. The result for `CC(C)N[C@@H]1CC[C@H](n2cc(C(N)=O)c(Nc3ccc(S(=O)(=O)C(F)(F)F)cc3)n2)[C@@H](C#N)C1` (single isomer, unassigned) [Example 28-175, 1-{(1S,2S,4R or 1R,2R,4S)-2-cyano-4-[(1-methylethyl)amino]cyclohexyl}-3-({4-[(trifluoro-methyl)sulfonyl]phenyl}amino)-1H-pyrazole-4-carboxamide] reads 0.35 nM; that for `C[C@](O)(c1ccc(Nc2nn([C@H]3CCCC[C@@H]3C#N)cc2C(N)=O)cn1)C(F)F` (single isomer, unassigned) [Example 17-39, 1-[(1S,2S or 1R,2R)-2-cyanocyclohexyl]-3-({6-[(1S or 1R)-2,2-difluoro-1-hydroxy-1-methylethyl]pyridin-3-yl}amino)-1H-pyrazole-4-carboxamide], 1 nM; that for `N#C[C@H]1C[C@@H](N2CCC2)CC[C@@H]1n1cc(C(N)=O)c(Nc2ccc(OC(F)F)cc2)n1` (single isomer, unassigned) [Example 28-108, 1-[(1S,2S,4S or 1R,2R,4R)-4-azetidin-1-yl-2-cyanocyclohexyl]-3-{[4-(difluoromethoxy)phenyl]amino}-1H-pyrazole-4-carboxamide], 2 nM. Take `N#C[C@H]1C[C@@](O)(C2CC2)CC[C@@H]1n1cc(C(N)=O)c(Nc2ccc(Cl)cc2)n1` (single isomer, unassigned) [Example 32-14, 3-[(4-chlorophenyl)amino]-1-[(1S,2S,4R or 1R,2R,4S)-2-cyano-4-cyclopropyl-4-hydroxycyclohexyl]-1H-pyrazole-4-carboxamide]: the IC50 worked out at 15 nM. Regarding `CC(C)(C(=O)O)c1ccc(Nc2nn([C@H]3CC[C@@H](N4CCC4)C[C@@H]3C#N)cc2C(N)=O)cc1` (single isomer, unassigned) [Example 28-80, 2-[4-({1-[(1S,2S,4R or 1R,2R,4S)-4-azetidin-1-yl-2-cyanocyclohexyl]-4-carbamoyl-1H-pyrazol-3-yl}amino)phenyl]-2-methylpropanoic acid], the IC50 was determined as 0.3 nM. The result for `N#C[C@H]1C[C@H](O)CCC1n1cc(C(N)=O)c(Nc2ccnc(F)c2)n1` (mixture of isomers) [Example 15, 1-[(1S,2S,4R and 1R,2R,4S)-2-Cyano-4-hydroxycyclohexyl]-3-[(2-fluoropyridin-4-yl)amino]-1H-pyrazole-4-carboxamide] reads 3 nM; that for `N#C[C@H]1CCCCC1n1cc(C(N)=O)c(Nc2ccc3c(c2)CCS3(=O)=O)n1` (mixture of isomers) [Example 20, 1-[(1S,2S and 1R,2R)-2-Cyanocyclohexyl]-3-[(1,1-dioxido-2,3-dihydro-1-benzothiophen-5-yl)amino]-1H-pyrazole-4-carboxamide], 0.4 nM. On to `CN(C)[C@@H]1CC[C@H](n2cc(C(N)=O)c(Nc3ccc(OC(F)F)cc3)n2)[C@@H](C#N)C1` (single isomer, unassigned) [Example 28-95, 1-[(1S,2S,4R or 1R,2R,4S)-2-cyano-4-(dimethylamino)cyclohexyl]-3-{[4-(difluoromethoxy)phenyl]amino}-1H-pyrazole-4-carboxamide], for which the half-maximal inhibitory concentration (IC50) came to 1 nM. Turning to `N#C[C@@H]1CC2(CCC1n1cc(C(N)=O)c(Nc3ccnc(F)c3)n1)CC2` (mixture of isomers) [Example 11-7, 1-((5R,6R and 5S,6S)-5-cyanospiro[2.5]octan-6-yl)-3-((2-fluoropyridin-4-yl)amino)-1H-pyrazole-4-carboxamide], the IC50 was 5 nM.

`N#C[C@H]1C[C@@H](NCC(F)(F)F)CC[C@@H]1n1cc(C(N)=O)c(Nc2ccnc(F)c2)n1` (single isomer, unassigned) [Example 28-111, 1-{(1S,2S,4S or 1R,2R,4R)-2-cyano-4-[(2,2,2-trifluoroethyl)amino]cyclohexyl}-3-[(2-fluoropyridin-4-yl)amino]-1H-pyrazole-4-carboxamide]: the IC50 was 1 nM. The result for `CC(=O)c1ccc(Nc2nn([C@H]3CCCC[C@@H]3C#N)cc2C(N)=O)cc1` (single isomer, unassigned) [Example 17-27, 3-[(4-acetylphenyl)amino]-1-[(1S,2S or 1R,2R)-2-cyanocyclohexyl]-1H-pyrazole-4-carboxamide] reads 0.3 nM.
